Patent publication US8158088B2, “Extractant compositions for co-extracting cesium and strontium, a method of separating cesium and strontium from an aqueous feed, and calixarene compounds” (Battelle Energy Alliance, LLC, priority 2008, dated 2012)

Assays:
Format in all cases: physicochemical
[1] = Cesium distribution ratio (DCs), equilibrium batch contact of mixed extractant solvent with nitric acid feed
Description: The distribution of cesium and strontium between the first organic phase (the mixed extractant solvent including the dialkyloxycalix[4]arenebenzocrown-6 compound) and the first aqueous phase (aqueous feed) may be determined by conventional techniques. The distribution ratio for strontium (“DSr”) may be calculated as the ratio of organic phase activity to the aqueous phase activity at equilibrium. High values for the DSr indicate that the strontium is present predominantly in the organic phase while low values for the DSr indicate that the strontium is present predominantly in the aqueous phase. Similarly, the distribution ratio for cesium (“DCs”) may be calculated as the ratio of organic phase activity to the aqueous phase activity at equilibrium. High values for the DCs indicate that the cesium is present predominantly in the organic phase while low values for the DCs indicate that the cesium is present predominantly in the aqueous phase.
Distribution ratios (DM=[M]org/[M]aq) were measured by equilibrium batch contacts between the organic and aqueous phases at an organic-to-aqueous phase ratio (O/A) of unity (O/A=1). All distribution ratio measurements were conducted in a temperature controlled water bath at 25±1° C. The aqueous phase was of the appropriate HNO3 concentration, to which trace quantities (typically, less than 10^−7 M each) of the major radionuclides of interest (^137Cs, ^85Sr, ^154Eu, or ^241Am) were added. The organic and aqueous phases were contacted by vortex mixing for 1 minute. All batch contact experiments were performed at ambient temperature (from approximately 20° C. to approximately 25° C.) unless otherwise noted. Following extraction, the samples were centrifuged for 1 minute and the organic and aqueous phases separated by pipet or centrifugation. The distribution ratios (DSr, or DCs) were calculated as the ratio of the appropriate specific activities in the organic and aqueous phases as determined by γ-ray counting (gamma spectroscopy). The counting time was selected to provide less than approximately 1% statistical uncertainty.
(MC-8, MC-8B, MC-10, MC-10B, MC-12, or MC-12B), 0.075 M DtBuCH18C6, 0.75 M Cs-7SB modifier, and 0.003 M TOA in ISOPAR® L were evaluated for their respective abilities to simultaneously extract cesium and strontium from the aqueous feed simulant composition described in Table 2. The cesium and strontium distribution ratios of the mixed extraction solvents were compared to those of the FPEX I process solvent. The cesium extraction performance and strontium extraction performance of each of the mixed extractant solvents was determined using the batch contact flowsheet presented in FIG. 1, where “E1,” “E2,” and “E3” refer to three forward extraction acts: a first extraction act, a second extraction act, and a third extraction act, respectively, and “St1” and “St2” refer to two backward extraction acts: a first strip act and a second strip act, respectively. […] The aqueous feed 2 and the mixed extractant solvent 4 were combined in a vessel 6 to conduct the extraction. Two phases were formed during the extraction: the first organic phase and the first aqueous phase, with the cesium and strontium substantially distributed in the first organic phase.
The cesium and strontium distribution ratios for the mixed extractant solvents 4 were calculated for the first organic phase and are reported in Tables 3 and 4, respectively, as E1, along with the cesium and strontium distribution ratios for the FPEX I process solvent. The cesium and strontium were stripped from the first (and subsequent) organic phase to recover these radionuclides. For the strips or backward extractions, the first (and subsequent) organic phase was contacted with dilute acidic solution 8, which was 0.01 M HNO3. […]

[2] = Strontium distribution ratio (DSr), equilibrium batch contact of mixed extractant solvent with nitric acid feed
[3] = Solubility of the calixarene in the extractant solvent
[4] = 0.010 M MC-8, contact E1, 1.5 M HNO3, 0.075 M DtBuCH18C6, 0.75 M Cs-7SB, 0.003 M TOA in ISOPAR L
[5] = 0.015 M MC-8, contact E1, 1.5 M HNO3
[6] = 0.020 M MC-8, contact E1, 1.5 M HNO3
[7] = 0.025 M MC-8, contact E1, 1.5 M HNO3
[8] = 1.0 M HNO3, 20 °C, contact E1, 0.025 M MC-8, 0.075 M DtBuCH18C6, 0.75 M Cs-7SB, 0.003 M TOA in ISOPAR L
[9] = 1.5 M HNO3, 20 °C, contact E1, 0.025 M MC-8
[10] = 2.0 M HNO3, 20 °C, contact E1, 0.025 M MC-8
[11] = 3.0 M HNO3, 20 °C, contact E1, 0.025 M MC-8
[12] = 4.0 M HNO3, 20 °C, contact E1, 0.025 M MC-8
[13] = 15 °C, contact E1, 1.0 M HNO3 feed, 0.025 M MC-8, 0.075 M DtBuCH18C6, 0.75 M Cs-7SB, 0.003 M TOA in ISOPAR L
[14] = 20 °C, contact E1, 1.0 M HNO3 feed, 0.025 M MC-8
[15] = 25 °C, contact E1, 1.0 M HNO3 feed, 0.025 M MC-8
[16] = 30 °C, contact E1, 1.0 M HNO3 feed, 0.025 M MC-8
[17] = 35 °C, contact E1, 1.0 M HNO3 feed, 0.025 M MC-8
[18] = contact E1, batch contact flowsheet, simulated feed 1.0 M HNO3, 0.025 M MC-8
[19] = contact E2, simulated feed 1.0 M HNO3, 0.025 M MC-8
[20] = contact E3, simulated feed 1.0 M HNO3, 0.025 M MC-8
[21] = contact St1 (strip), 0.025 M MC-8
[22] = contact St2 (strip), 0.025 M MC-8
[23] = first forward extraction, 1.5 M HNO3 feed simulant, 25 °C, 0.007 M calixarene, 0.075 M DtBuCH18C6, 0.75 M Cs-7SB, 0.003 M TOA in ISOPAR L
[24] = first strip with 0.01 M HNO3, 35 °C, 0.007 M calixarene solvent
[25] = second forward extraction, 1.5 M HNO3 feed, 25 °C, 0.007 M calixarene solvent
[26] = second strip with 0.01 M HNO3, 35 °C, 0.007 M calixarene solvent
[27] = third forward extraction, 1.5 M HNO3 feed, 25 °C, 0.007 M calixarene solvent

## CCCCCCCCOc1c2cccc1Cc1cccc3c1OCCOCCOc1ccccc1OCCOCCOc1c(cccc1Cc1cccc(c1OCCCCCCCC)C3)C2 [MC-8, 1,3-alternate-25,27-di(octyloxy)calix[4]arenebenzocrown-6]
[1]; [4]
  DCs: 7.2
[1]; [5]
  DCs: 13.3
[1]; [6]
  DCs: 21.5
[1]; [7]
  DCs: 29.4
[1]; 0.05 M MC-8 (as printed in text), 1.5 M HNO3
  cesium distribution ratio: 29
[1]; [8]
  DCs: 31.0
[1]; [9]
  DCs: 35.6
[1]; [10]
  DCs: 39.9
[1]; [11]
  DCs: 3rd phase
[1]; [12]
  DCs: 3rd phase
[1]; [13]
  DCs: 44.5
[1]; [14]
  DCs: 24.5
[1]; [15]
  DCs: 15.7
[1]; [16]
  DCs: 9.9
[1]; [17]
  DCs: 6.2
[1]; [18]
  DCs: 34.7
[1]; [19]
  DCs: 29.0
[1]; [20]
  DCs: 21.9
[1]; [21]
  DCs: 0.63
[1]; [22]
  DCs: 0.25
[1]; [23]
  Cesium distribution ratio, contact E1: 4.2
[1]; [24]
  Cesium distribution ratio, contact St1: 0.6
[1]; [25]
  Cesium distribution ratio, contact E2: 1.9
[1]; [26]
  Cesium distribution ratio, contact St2: 0.2
[1]; [27]
  Cesium distribution ratio, contact E3: 1.5
[2]; [4]
  DSr: 8.9
[2]; [5]
  DSr: 7.2
[2]; [6]
  DSr: 9.4
[2]; [7]
  DSr: 9.1
[2]; [8]
  DSr: 7.4
[2]; [9]
  DSr: 12.4
[2]; [10]
  DSr: 16.2
[2]; [11]
  DSr: 3rd phase
[2]; [12]
  DSr: 3rd phase
[2]; [13]
  DSr: 9.0
[2]; [14]
  DSr: 6.0
[2]; [15]
  DSr: 4.6
[2]; [16]
  DSr: 3.4
[2]; [17]
  DSr: 2.5
[2]; [18]
  DSr: 7.1
[2]; [19]
  DSr: 6.2
[2]; [20]
  DSr: 6.2
[2]; [21]
  DSr: 0.022
[2]; [22]
  DSr: 0.006
[2]; [23]
  Strontium distribution ratio, contact E1: 10.5
[2]; [24]
  Strontium distribution ratio, contact St1: 0.06
[2]; [25]
  Strontium distribution ratio, contact E2: 8.6
[2]; [26]
  Strontium distribution ratio, contact St2: 0.01
[2]; [27]
  Strontium distribution ratio, contact E3: 8.5
[3]; 0.05 M MC-8 solvent, room temperature, several months
  precipitation on storage: no observable precipitation
[3]; MC-8 varied from 0.01 M to 0.05 M in 0.075 M DtBuCH18C6, 0.75 M Cs-7SB, 0.003 M TOA in ISOPAR L
  solubility in the mixed extractant solvent: soluble at these increased concentrations
